Here are results for 39 molecules from patent US6403626B1, “Benzimidazole derivatives” (Synaptic Pharmaceutical Corporation, priority 1994, dated 2002).

Counter-ions that a name gives are not always drawn.

The molecule `Cn1cnc2cc(NC3=NCCN3)ccc21` (as salt: fumarate) [Example 9, 1-Methyl-5-(2-imidazolin-2-ylamino)Benzimidazole] yielded a melting point of 210 to 211 °C. Next, `CC(C)Cn1cnc2ccc(NC3=NCCN3)c(Br)c21` (as salt: fumarate) [Example 24, 3-Isobutyl-4-bromo-5-(2-imidazolin-2-ylamino)Benzimidazole]: 187 to 188 °C; `Brc1c(NC2=NCCN2)ccc2ncn(Cc3ccccc3)c12` (as salt: fumarate) [Example 35, 3-Benzyl-4-bromo-5-(2-imidazolin-2-ylamino)Benzimidazole]: 203 to 205 °C; `Clc1c(NC2=NCCN2)ccc2nc[nH]c12` (as salt: fumarate) [Example 3, 4-Chloro-5-(2-imidazolin-2-ylamino)Benzimidazole]: 207 to 208 °C.

`CC(C)n1cnc2c(I)c(NC3=NCCN3)ccc21` (as salt: fumarate) [Example 19, 1-lsopropyl-4-Iodo-5-(2-imidazolin-2-ylamino)Benzimidazole] gave a melting point of 208 to 209 °C. Consider `COc1cccc(Cn2cnc3c(Br)c(NC4=NCCN4)ccc32)c1` (as salt: fumarate) [Example 37, 1-(3-Methoxybenzyl)-4-bromo-5-(2-imidazolin-2-ylamino)Benzimidazole], for which the melting point is 177 to 178 °C.

In the case of `CC(C)n1cnc2c(Br)c(NC3=NCCN3)ccc21` (as salt: fumarate) [Example 18, 1-Isopropyl-4-bromo-5-(2-imidazolin-2-ylamino)Benzimidazole], the melting point was 187 to 188 °C. Next, `CCc1cc(NC2=NCCN2)cc2[nH]cnc12` (as salt: fumarate) [Example 55, 7-Ethyl-5-(2-imidazolin-2-ylamino)Benzimidazole]: 203 to 205 °C. Next, `Ic1c(NC2=NCCN2)ccc2nc[nH]c12` (as salt: fumarate) [Example 5, 4-Iodo-5-(2-imidazolin-2-ylamino)Benzimidazole]: 256 °C; `c1cc2ncn(C3CCCC3)c2cc1NC1=NCCN1` (as salt: fumarate) [Example 27, 3-Cyclopentyl-5-(2-imidazolin-2-ylamino)Benzimidazole]: 158 to 159 °C; `CCCn1cnc2cc(NC3=NCCN3)ccc21` (as salt: fumarate) [Example 13, 1-Propyl-5-(2-imidazolin-2-ylamino)Benzimidazole]: 206 to 207 °C. As to `Brc1cc(NC2=NCCN2)cc2[nH]cnc12` (as salt: fumarate) [Example 51, 7-Bromo-5-(2-imidazolin-2-ylamino)Benzimidazole], the melting point lay within 217 to 218 °C. The same measure for `Brc1c(NC2=NCCN2)ccc2c1ncn2C1CCCC1` (as salt: fumarate) [Example 26, 1-Cyclopentyl-4-bromo-5-(2-imidazolin-2-ylamino)Benzimidazole]: 180 to 182 °C.

The molecule `Brc1c(NC2=NCCN2)ccc2nc[nH]c12` (as salt: fumarate) [Example 2, 4-Bromo-5-(2-imidazolin-2-ylamino)Benzimidazole] returned a melting point of 199 to 202 °C. Next, `Clc1cc(NC2=NCCN2)cc2[nH]cnc12` (as salt: fumarate) [Example 53, 7-Chloro-5-(2-imidazolin-2-ylamino)Benzimidazole]: 220 to 221 °C; `c1ccc(-c2cc(NC3=NCCN3)cc3[nH]cnc23)cc1` (as salt: fumarate) [Example 57, 7-Phenyl-5-(2-imidazolin-2-ylamino)Benzimidazole]: 149 to 151 °C; `CCCCc1cc(NC2=NCCN2)cc2[nH]cnc12` (as salt: fumarate) [Example 56, 7-Butyl-5-(2-imidazolin-2-ylamino)Benzimidazole]: 115 to 117 °C. The same measure for `CC(C)Cn1cnc2cc(NC3=NCCN3)ccc21` (as salt: fumarate) [Example 22, 1-Isobutyl-5-(2-imidazolin-2-ylamino)Benzimidazole]: 185 to 186 °C.

`CCCn1cnc2ccc(NC3=NCCN3)cc21` (as salt: fumarate) [Example 15, 3-Propyl-5-(2-imidazolin-2-ylamino)Benzimidazole]: the melting point was in the range of 198 to 199 °C. Next, `CC(C)n1cnc2ccc(NC3=NCCN3)c(Br)c21` (as salt: fumarate) [Example 21, 3-Isopropyl-4-bromo-5-(2-imidazolin-2-ylamino)Benzimidazole]: 210 to 212 °C; `CC(C)n1cnc2cc(NC3=NCCN3)ccc21` (as salt: fumarate) [Example 17, 1-Isopropyl-5-(2-imidazolin-2-ylamino)Benzimidazole]: 185 to 186 °C. Next, `c1cc2c(cc1NC1=NCCN1)ncn2C1CCCC1` (as salt: fumarate) [Example 25, 1-Cyclopentyl-5-(2-imidazolin-2-ylamino)Benzimidazole]: 214 to 215 °C; `CC(C)c1nc2ccc(NC3=NCCN3)c(Br)c2[nH]1` (as salt: fumarate) [Example 44, 2-Isopropyl-4-bromo-5-(2-imidazolin-2-ylamino)Benzimidazole]: 176 to 178 °C; `Brc1c(NC2=NCCN2)ccc2c1ncn2Cc1ccccc1` (as salt: fumarate) [Example 33, 1-Benzyl-4-bromo-5-(2-imidazolin-2-ylamino)Benzimidazole]: 197 to 198 °C. Next, `Clc1cc(NC2=NCCN2)c(Br)c2[nH]cnc12` (as salt: fumarate) [Example 60, 4-Bromo-7-chloro-5-(2-imidazolin-2-ylamino)Benzimidazole]: 244 to 246 °C.

As to `c1nc2ccc(NC3=NCCN3)cc2[nH]1` (as salt: fumarate) [Example 1, 5-(2-Imidazolin-2-ylamino)Benzimidazole], the melting point fell in the range of 196 to 198 °C. Molecule `OCCn1cnc2c(Br)c(NC3=NCCN3)ccc21` (as salt: fumarate) [Example 38, 1-(2-Hydroxyethyl)-4-bromo-5-(2-imidazolin-2-ylamino)Benzimidazole] gave a melting point of 141 to 143 °C. The same measure for `Cc1nc2ccc(NC3=NCCN3)c(Br)c2[nH]1` (as salt: fumarate) [Example 42, 2-Methyl-4-bromo-5-(2-imidazolin-2-ylamino)Benzimidazole]: 222 to 224 °C. With `Brc1c(NC2=NCCN2)ccc2ncn(C3CCCC3)c12` (as salt: fumarate) [Example 28, 3-Cyclopentyl-4-bromo-5-(2-imidazolin-2-ylamino)Benzimidazole], the melting point is 208 to 210 °C.

As for `Brc1c(NC2=NCCN2)ccc2nc(C(c3ccccc3)c3ccccc3)[nH]c12` (as salt: fumarate) [Example 48, 2-Diphenylmethyl-4-bromo-5-(2-imidazolin-2-ylamino)Benzimidazole], the melting point was in the range of 240 to 242 °C. The molecule `Cc1cc2nc[nH]c2cc1NC1=NCCN1` (as salt: fumarate) [Example 49, 6-Methyl-5-(2-imidazolin-2-ylamino)Benzimidazole] registered a melting point of 219 to 221 °C. With `c1cc2c(cc1NC1=NCCN1)ncn2CC1CCCCC1` (as salt: fumarate) [Example 29, 1-Cyclohexylmethyl-5-(2-imidazolin-2-ylamino)Benzimidazole], the melting point is 222 to 223 °C. Take `c1ccc(Cn2cnc3cc(NC4=NCCN4)ccc32)cc1` (as salt: fumarate) [Example 32, 1-Benzyl-5-(2-imidazolin-2-ylamino)Benzimidazole]: the melting point lay in the range of 174 to 175 °C. Next, `Brc1c(NC2=NCCN2)ccc2ncn(CC3CCCCC3)c12` (as salt: fumarate) [Example 31, 3-Cyclohexylmethyl-4-bromo-5-(2-imidazolin-2-ylamino)Benzimidazole]: 153 to 155 °C; `CC(C)(C)c1nc2ccc(NC3=NCCN3)c(Br)c2[nH]1` (as salt: fumarate) [Example 45, 2-tert-Butyl-4-bromo-5-(2-imidazolin-2-ylamino)Benzimidazole]: 176 to 178 °C; `c1ccc(Cn2cnc3ccc(NC4=NCCN4)cc32)cc1` (as salt: fumarate) [Example 34, 3-Benzyl-5-(2-imidazolin-2-ylamino)Benzimidazole]: 174 to 175 °C.

Molecule `Cn1cnc2ccc(NC3=NCCN3)cc21` (as salt: fumarate) [Example 11, 3-Methyl-5-(2-imidazolin-2-ylamino)Benzimidazole] yielded a melting point of 202 to 204 °C.

For `Cc1cc(NC2=NCCN2)cc2[nH]cnc12` (as salt: fumarate) [Example 52, 7-Methyl-5-(2-imidazolin-2-ylamino)Benzimidazole], the melting point lay within 229 to 231 °C.

Consider `CCc1nc2ccc(NC3=NCCN3)c(Br)c2[nH]1` (as salt: fumarate) [Example 43, 2-Ethyl-4-bromo-5-(2-imidazolin-2-ylamino)Benzimidazole], for which the melting point fell in the range of 186 to 187 °C.
